Source: patent publication US10375956B2, “Herbicidally active 2-(substituted-phenyl)-cyclopentane-1,3-dione compounds and derivatives thereof” (Syngenta Limited, priority 2013, dated 2019)

Key:
Format in all cases: in vivo
[1] = tested on: Abutilon theophrasti (ABUTH); experiment: Test 1 glasshouse assay, post-emergence herbicidal activity; settings: 312 h, post-emergence (Example 1B Table 1), after 13 days, read-out: Percentage phytotoxicity ABUTH
Summary of the method: (§1)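 Plants sprayed post-emergence after 8 days' growth with active ingredient in acetone/water (50:50) plus 0.5% Tween 20; glasshouse at 24/16° C day/night, 14 h light, 65% humidity. Visual percentage phytotoxicity scored 13 days later (100% = total damage, 0% = none).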

[2] = tested on: Amaranthus retroflexus (AMARE); experiment: as above; settings: 312 h, post-emergence (Example 1B Table 1), after 13 days, read-out: Percentage phytotoxicity AMARE
Summary of the method: as §1

Setaria faberi (SETFA) = experiment: as above; settings: 312 h, post-emergence (Example 1B Table 1), after 13 days, read-out: Percentage phytotoxicity SETFA
Summary of the method: as §1

[3] = tested on: Zea mays (ZEAMX, corn/maize); experiment: as above; settings: 312 h, post-emergence (Example 1B Table 1), after 13 days, read-out: Percentage phytotoxicity ZEAMX
Summary of the method: as §1

Avena fatua (AVEFA) [4] = experiment: as above; settings: 312 h, post-emergence (Example 1B Table 2), after 13 days, read-out: Percentage phytotoxicity AVEFA
Description: (§2) Seeds of a variety of test species are sown in standard soil in pots. After cultivation for one day (pre-emergence) or after 8 days cultivation (post-emergence) under controlled conditions in a glasshouse (at 24/16° C., day/night; 14 hours light; 65% humidity), the plants are sprayed with an aqueous spray solution derived from the formulation of the “technical” (i.e. unformulated) active ingredient in acetone/water (50:50) solution containing 0.5% Tween 20 (polyoxyethylene sorbitan monolaurate, CAS Registry Number 9005-64-5). The test plants are then grown on under controlled conditions in a glasshouse (at 24/16° C., day/night; 14 hours light; 65% humidity) and watered twice daily. After 13 days for pre- or post-emergence, the test is evaluated visually, and an assessed percentage phytotoxicity score is given for each herbicidal application on each plant species (where 100%=total damage to plant; 0%=no damage to plant).
(§3) Lolium perenne (LOLPE), Alopecurus myosuroides (ALOMY), Echinochloa crus-galli (ECHCG), and Avena fatua (AVEFA); these are all grassy monocotyledonous weeds. Cool climate crop plant: Triticum aestivum (TRZAW, winter wheat).

Lolium perenne (LOLPE) [5] = experiment: as above; settings: 312 h, post-emergence (Example 1B Table 2), after 13 days, read-out: Percentage phytotoxicity LOLPE
Description: as §2, §3

[6] = tested on: Triticum aestivum (TRZAW, winter wheat); experiment: as above; settings: 312 h, post-emergence (Example 1B Table 2), after 13 days, crop plant, read-out: Percentage phytotoxicity TRZAW
Description: as §2, §3

Avena fatua (AVEFA) [7] = experiment: Test 2 glasshouse assay (IF50 formulation, X-77), post-emergence herbicidal activity; settings: 360 h, 15 DAA, visual score, read-out: Post-emergence herbicidal activity (percentage phytotoxicity) AVEFA; for pest or weed control at 30 g/ha: application rate 30 g/ha; for pest or weed control at 250 g/ha: application rate 250 g/ha; for pest or weed control at 125 g/ha: application rate 125 g/ha
Summary of the method: (§4)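 Plants in soil pots were sprayed 1 day (pre-emergence) or ~12 days (post-emergence) after sowing with IF50 formulation diluted in 0.2% v/v X-77. Cool species were grown at 20/16 °C day/night, 16 h light, 65% humidity. Visual % phytotoxicity was scored at 20DAA (pre) or 15DAA (post).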

Lolium perenne (LOLPE) [8] = experiment: as above; settings: 360 h, 15 DAA, visual score, read-out: Post-emergence herbicidal activity (percentage phytotoxicity) LOLPE; for pest or weed control at 30 g/ha: application rate 30 g/ha; for pest or weed control at 250 g/ha: application rate 250 g/ha; for pest or weed control at 125 g/ha: application rate 125 g/ha
Summary of the method: as §4

| Structure (SMILES) | pest or weed control at 250 g/ha [1] | pest or weed control at 250 g/ha [2] | pest or weed control at 250 g/ha (Setaria faberi (SETFA)) | pest or weed control at 250 g/ha [3] | pest or weed control at 62.5 g/ha (Avena fatua (AVEFA) [4]) | pest or weed control at 250 g/ha (Avena fatua (AVEFA) [4]) | pest or weed control at 62.5 g/ha (Lolium perenne (LOLPE) [5]) | pest or weed control at 250 g/ha (Lolium perenne (LOLPE) [5]) | plant injury at 62.5 g/ha [6] | plant injury at 250 g/ha [6] | pest or weed control at 30 g/ha (Avena fatua (AVEFA) [7]) | pest or weed control at 250 g/ha (Avena fatua (AVEFA) [7]) | pest or weed control at 30 g/ha (Lolium perenne (LOLPE) [8]) | pest or weed control at 250 g/ha (Lolium perenne (LOLPE) [8]) | pest or weed control at 30 g/ha [1] | pest or weed control at 30 g/ha [2] | pest or weed control at 30 g/ha (Setaria faberi (SETFA)) | pest or weed control at 30 g/ha [3] | pest or weed control at 125 g/ha (Avena fatua (AVEFA) [7]) | pest or weed control at 125 g/ha (Lolium perenne (LOLPE) [8]) | further results |
| --- | --- | --- | --- | --- | --- | --- | --- | --- | --- | --- | --- | --- | --- | --- | --- | --- | --- | --- | --- | --- | --- |
| C#CCC1CC(=O)C(c2c(C)cc(-c3ccc(Cl)cn3)cc2C)C1=O (centres unmarked) [Compound A2] | 80% | 70% | 100% | 100% | 80% | 100% | 70% | 100% | 70% | 90% | 60% | 90% | 30% | 90% | – | – | – | – | – | – | pest or weed control at 62.5 g/ha [1]: 70%; pest or weed control at 62.5 g/ha [2]: 70%; pest or weed control at 62.5 g/ha (Setaria faberi (SETFA)): 100%; pest or weed control at 62.5 g/ha [3]: 100% |
| C#CCC1CC(=O)C(c2c(C)cc(-c3ncc(Cl)cc3F)cc2C)C1=O (centres unmarked) [Compound A3] | 90% | 90% | 100% | 100% | 90% | 100% | 100% | 100% | 90% | 90% | 40% | 100% | 30% | 90% | – | – | – | – | – | – | pest or weed control at 62.5 g/ha [1]: 80%; pest or weed control at 62.5 g/ha [2]: 60%; pest or weed control at 62.5 g/ha (Setaria faberi (SETFA)): 100%; pest or weed control at 62.5 g/ha [3]: 100% |
| C#CCC1CC(=O)C(c2c(F)cc(-c3ccc(Cl)cc3)cc2Cl)C1=O (centres unmarked) [Compound A6, 2-[2-chloro-4-(4-chlorophenyl)-6-fluorophenyl]-4-prop-2-ynylcyclopentane-1,3-dione] | 70% | 70% | 100% | 100% | – | 90% | – | 80% | – | 80% | – | 80% | – | 70% | 40% | 60% | 100% | 100% | 70% | 30% | – |
| C#CCC1CC(=O)C(c2c(F)cc(-c3ccc(Cl)cn3)cc2Cl)C1=O (centres unmarked) [Compound A8] | 80% | 90% | 100% | 100% | 90% | 100% | 70% | 100% | 80% | 80% | 50% | 90% | 40% | 60% | 70% | 80% | 100% | 100% | – | – | – |
| C#CCC1CC(=O)C(c2c(Cl)cc(-c3ccc(Cl)cn3)cc2OC)C1=O (centres unmarked) [Compound A10] | 80% | 80% | 100% | 100% | 100% | 100% | 100% | 100% | 90% | 90% | 60% | 100% | 30% | 90% | 80% | 80% | 100% | 100% | – | – | – |
| C#CCC1CC(=O)C(c2cc(-c3ncc(Cl)cn3)ccc2C)C1=O (centres unmarked) [Compound A19] | 30% | 20% | 90% | 30% | – | – | – | – | – | – | – | 10% | – | 10% | 0% | 0% | 70% | 40% | – | – | – |
| C#CCC1CC(=O)C(c2c(F)cc(-c3ccc(F)c(F)c3)cc2OC)C1=O (centres unmarked) [Compound A22] | 40% | 80% | 100% | 100% | – | – | – | – | – | – | 0% | – | 10% | – | 0% | 10% | 90% | 100% | 70% | 50% | – |
| C#CCC1CC(=O)C(c2c(C)cc(C)cc2C)C1=O (centres unmarked) [Compound A23] | – | – | – | – | 90% | 90% | 90% | 100% | 50% | 70% | – | – | – | – | – | – | – | – | 80% | 90% | – |
| C#CCC1CC(=O)C(c2c(CC)cc(C)cc2CC)C1=O (centres unmarked) [Compound A25, 2-(2,6-diethyl-4-methyl-phenyl)-4-(prop-2-ynyl)-cyclopentane-1,3-dione] | – | – | – | – | 100% | 100% | 100% | 100% | 30% | 60% | 80% | – | 90% | – | – | – | – | – | 100% | 100% | – |
| C#CCC1C(=O)C(c2c(C)cc(C)cc2C)C(=O)C1CC#C (centres unmarked) [Compound A42] | – | – | – | – | – | 80% | – | 100% | – | 20% | – | – | – | – | – | – | – | – | 0% | 80% | pest or weed control at 500 g/ha (Avena fatua (AVEFA) [7]; application rate 500 g/ha): 50%; pest or weed control at 500 g/ha (Lolium perenne (LOLPE) [8]; application rate 500 g/ha): 100% |
